The values that follow come from patent EP1323715B1, “Inhibitors of cholesterol esterase” (The University of New Mexico, priority 1997, dated 1998).

The target of assay [1] is T1, cholesterol esterase (CE) (Homo sapiens, UniProt P19835).
T1 sequence (P19835 21-753): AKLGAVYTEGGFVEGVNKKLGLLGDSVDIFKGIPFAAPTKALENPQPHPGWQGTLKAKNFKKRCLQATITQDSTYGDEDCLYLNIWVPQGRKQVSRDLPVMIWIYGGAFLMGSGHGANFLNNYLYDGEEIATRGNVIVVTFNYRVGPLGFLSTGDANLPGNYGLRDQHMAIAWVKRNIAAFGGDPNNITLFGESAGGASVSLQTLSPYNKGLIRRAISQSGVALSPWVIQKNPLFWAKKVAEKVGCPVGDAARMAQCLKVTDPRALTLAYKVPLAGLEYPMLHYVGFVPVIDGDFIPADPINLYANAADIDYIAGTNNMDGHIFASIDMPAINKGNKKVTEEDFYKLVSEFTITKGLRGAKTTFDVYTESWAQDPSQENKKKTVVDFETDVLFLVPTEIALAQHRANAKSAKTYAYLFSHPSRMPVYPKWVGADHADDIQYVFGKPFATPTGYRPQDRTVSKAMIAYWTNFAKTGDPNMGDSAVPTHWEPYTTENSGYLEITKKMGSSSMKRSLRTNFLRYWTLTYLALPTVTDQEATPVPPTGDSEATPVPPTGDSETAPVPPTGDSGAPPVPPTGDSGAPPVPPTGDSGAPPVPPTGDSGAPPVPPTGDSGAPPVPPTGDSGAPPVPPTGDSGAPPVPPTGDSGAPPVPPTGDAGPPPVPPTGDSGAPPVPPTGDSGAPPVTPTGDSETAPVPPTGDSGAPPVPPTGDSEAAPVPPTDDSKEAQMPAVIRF
As to the kind of experiment: Kinetic inhibition studies of CE with substrate p-nitrophenylbutyrate, Dixon plots. Particulars: for inhibition of CE (in words): kinetic inhibition studies.

Assay [2] addresses chymotrypsin (Bos taurus, UniProt P00766). As to the kind of experiment: Inhibition of chymotrypsin. The class given is biochemical. The text has this:
Thus, the compounds of the present invention which have a saturated ring as part of the 3-substituent provide tremendous selectivity when compared to compounds where the 3-substituent includes an aromatic ring.

The conditions of assay [3]: rats, single intragastric dose simultaneous with feeding of cholesterol ester; cited from earlier work.
The target of assay [4] is T2, CE (Homo sapiens, UniProt P19835).
T2 sequence (P19835 21-753): T1 sequence (P19835 21-753)
As to conditions: in vitro; cited from earlier work.

Assay [5] addresses T3, lumenal CE (Rattus norvegicus, UniProt P07882).
T3 construct: from tissue; host or cells: rat intestinal lumen (in vivo)
T3 sequence (P07882 21-612): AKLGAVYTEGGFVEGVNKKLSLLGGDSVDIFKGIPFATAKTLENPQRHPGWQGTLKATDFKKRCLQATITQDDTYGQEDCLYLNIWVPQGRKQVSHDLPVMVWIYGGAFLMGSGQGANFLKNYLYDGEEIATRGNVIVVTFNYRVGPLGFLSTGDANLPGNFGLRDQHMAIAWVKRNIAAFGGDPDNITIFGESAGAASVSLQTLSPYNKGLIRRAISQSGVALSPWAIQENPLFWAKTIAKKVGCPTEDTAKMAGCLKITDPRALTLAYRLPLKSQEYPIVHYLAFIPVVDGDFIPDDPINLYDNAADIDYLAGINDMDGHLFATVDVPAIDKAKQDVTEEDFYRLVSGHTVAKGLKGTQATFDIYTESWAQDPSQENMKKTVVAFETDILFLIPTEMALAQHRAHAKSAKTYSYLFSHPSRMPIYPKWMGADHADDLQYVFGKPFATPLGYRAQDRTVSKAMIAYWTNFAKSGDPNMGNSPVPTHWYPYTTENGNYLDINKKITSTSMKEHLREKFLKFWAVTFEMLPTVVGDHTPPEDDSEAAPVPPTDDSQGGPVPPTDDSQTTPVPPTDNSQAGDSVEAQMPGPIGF
As to conditions: rats, single intragastric dose simultaneous with feeding of cholesterol ester; cited from earlier work.

Regarding `O=c1oc(Cl)ccc1CCC1CCCCC1` [Example 3], the Ki is 0.03 µM in assay [1] (calculated Ki, apparent Ki from Dixon plots, equals one half of the concentration of CE used in the assay) and 50 µM in assay [2]. As for `O=c1oc(Cl)ccc1CC1CCCCC1` [Example 2], the “inhibition of CE (in words)” value in assay [1] is “potent inhibitors of CE”. On the same count and under the same terms, with `O=c1oc(Cl)ccc1CCCC1CCCCC1` [Example 4] the entry was “potent inhibitors of CE”. With `O=c1oc(Cl)ccc1Cc1ccccc1` [3-benzyl-6-chloropyrone], the “drop in cholesterol absorption” value in assay [3] is on record as 60%. Moreover, in assay [4], the “half life of CE inactivation” value was 1.67 min. Further, in assay [5], the “inactivation of lumenal CE activity” value is on record as 63%.
